The results in this text go back to patent US10913750B2, “Tubulin-binding compounds, compositions and uses related thereto” (The Regents of the University of California, priority 2015, dated 2021).

The test system of one experiment is M308. Nature of the experiment: CellTiter-Glo cell viability, M308. The experiment is classed as cell-based. The procedure: (§1) To determine if MI-181 had broad anti-cancer activity, we treated a diverse panel of cancer cell lines including cervical adenocarcinoma (HeLa), breast adenocarcinoma (MCF7), melanoma (M233), osteosarcoma (U205), acute lymphoblastic leukemia (CCRF-CEM), non-small cell lung carcinoma (NCI-H460), and breast adenocarcinoma (MCF7) with MI-181 and determined its cell viability IC50 (FIGS. 13A and 13B). […] Therefore, the efficacy of MI-181 was analyzed in a panel of melanoma cell lines with defined genetic backgrounds including BRAF^V600E and NRAS^Q61L mutations and varied sensitivities to Vemurafenib (BRAF inhibitor) and Trametinib (MEK inhibitor), which are currently used to treat BRAF^V600E melanomas^43,44 (FIG. 10c). […] As a general trend BRAF^V600E cell lines were slightly more sensitive than NRAS^Q61L cell lines and MI-181 was effective in Vemurafenib and Trametinib resistant cell lines (FIG. 10c and Table 3). Finally, we tested the ability of MI-181 to inhibit melanoma colony formation using the M233 and M308 cell lines (both resistant to Vemurafenib). Indeed, MI-181 was a potent inhibitor of colony formation (percentage colony formation for 10 nM MI-181=0.2±0.1 and 0.8±0.7; for 10 nM colchicine=0.1±0.06 and 1.5±0.5; and for 10 nM Vemurafenib=94±7 and 102±5) (FIG. 10d). Thus, MI-181 is a potent inhibitor of melanoma cell lines. […]
For orientation: In ATP-based viability assays light output follows the ATP content of the culture.

A further experiment has as its system M207. Kind of experiment: CellTiter-Glo cell viability, M207. The experiment is classed as cell-based. On the procedure:
as §1

A further experiment has as its system β-tubulin. Nature of the experiment: Crystal structure of T2R-TTL tubulin complex soaked with ligand. The experiment is classed as binding, bovine. The conditions noted are these: T2R-TTL crystal soaked 24 hours with 1 mM compound. The procedure: The crystal structure of tubulin bound to two ligands described here was obtained using an established system for tubulin crystal growth. […] Methods in Cell Biology 2010, 95:373-390.) Briefly, bovine αβ-tubulin, human RB3 or rat STMN4 stathmin-like domain, and chicken tubulin tyrosine ligase (TTL) reconstitute to form a stathmin-bound αβ-tubulin (T2R) T2R-TTL complex, which readily crystallizes. […]
The final resolution cutoffs described here were determined optimally from a subset of diffraction images that took into consideration the signal-to-noise ratio for reflection intensities and the random half-data set correlation coefficient, CC1/2 (Karplus P. A., Diederichs K. Linking crystallographic model and data quality. Science 2012, (New York, N.Y.) 336:1030-1033.) […]

The term IC50 denotes the concentration at which inhibition is half-maximal. A high value points to a need for much substance. For `Cc1cc2nc(/C=C/c3cccnc3)sc2cc1C` [MI-181], the IC50 amounted to 28.3 nM in the experiment on M308 and 41.7 nM in the experiment with M207. The “binding to tubulin in crystal structure” value with β-tubulin is given as “bound to β-tubulin”.
